Consider ten molecules from patent US20120053053A1, “PYRIMIDINE DERIVATIVES AND THEIR USE AS HERBICIDES” (SYNGENTA CROP PROTECTION, LLC, priority 2009, published 2012).

“And” between values parts separate entries of the source, which are not always exact repeats. Equal entries are not always repeated.

Holding throughout (type): in vivo
Test [1] concerns Alopecurus myosuroides (ALOMY). The experiment in a line: Pre-emergence biological efficacy (percentage damage). To be noted: dose 1,000 g/ha, evaluated after 13 days, 100=total damage, 0=no damage; for pest or weed control at 1000 g/ha: Alopecurus myosuroides, 312 h. The protocol:
(§1) Seeds of Alopecurus myosuroides (ALOMY), Setaria faberi (SETFA), Echinochloa crus-galli (ECHCG), Solanum nigrum (SOLNI), Amaranthus retoflexus (AMARE) and Ipomea hederaceae (IPOHE) were sown in standard soil in pots. After cultivation for one day under controlled conditions in a glasshouse (at 24/16° C., day/night; 14 hours light; 65% humidity), the plants were sprayed with an aqueous spray solution derived from the formulation of the technical active ingredient in acetone/water (50:50) solution containing 0.5% Tween 20 (polyoxyethylene sorbitan monolaurate, CAS RN 9005-64-5) to give a final dose of 250 or 1000 g/ha of test compound. The test plants were then grown under controlled conditions in the glasshouse (at 24/16° C., day/night; 14 hours light; 65% humidity) and watered twice daily. After 13 days the test was evaluated (100=total damage to plant; 0=no damage to plant).

In test [2] the test system is Amaranthus retoflexus (AMARE). The test is described as above. The note with it: dose 1,000 g/ha, evaluated after 13 days, 100=total damage, 0=no damage; for pest or weed control at 1000 g/ha: Amaranthus retroflexus, 312 h. As to the method:
as §1

Test [3] concerns Echinochloa crus-galli (ECHCG). The description is as above. To be noted: dose 1,000 g/ha, evaluated after 13 days, 100=total damage, 0=no damage; for pest or weed control at 1000 g/ha: Echinochloa crus-galli, 312 h. As to the method: as §1
Test [4] concerns Ipomea hederaceae (IPOHE). The test is described as above. The note with it: dose 1,000 g/ha, evaluated after 13 days, 100=total damage, 0=no damage; for pest or weed control at 1000 g/ha: Ipomoea hederacea, 312 h. The protocol:
as §1

Test [5] deals with Setaria faberi (SETFA). Described as above. The note with it: dose 1,000 g/ha, evaluated after 13 days, 100=total damage, 0=no damage; for pest or weed control at 1000 g/ha: Setaria faberi, 312 h. As to the method:
as §1

Test [6] deals with Solanum nigrum (SOLNI). Described as above. The note with it: dose 1,000 g/ha, evaluated after 13 days, 100=total damage, 0=no damage; for pest or weed control at 1000 g/ha: Solanum nigrum, 312 h. As to the method: as §1
In test [7] the test system is Alopecurus myosuroides (ALOMY). The experiment in a line: Post-emergence biological efficacy (percentage damage). To be noted: dose 1,000 g/ha, evaluated after 13 days, 100=total damage, 0=no damage; for pest or weed control at 1000 g/ha: Alopecurus myosuroides, 312 h. The protocol:
as §1, with “for 8 days” for “for one day”, “grown on” for “grown”, “in a” for “in the”

For test [8], the system named is Amaranthus retoflexus (AMARE). The description is as above. The note with it: dose 1,000 g/ha, evaluated after 13 days, 100=total damage, 0=no damage; for pest or weed control at 1000 g/ha: Amaranthus retroflexus, 312 h. As to the method:
as §1, with “for 8 days” for “for one day”, “grown on” for “grown”, “in a” for “in the”

Test [9] relates to Echinochloa crus-galli (ECHCG). The test is described as above. The note with it: dose 1,000 g/ha, evaluated after 13 days, 100=total damage, 0=no damage; for pest or weed control at 1000 g/ha: Echinochloa crus-galli, 312 h. As to the method: as §1, with “for 8 days” for “for one day”, “grown on” for “grown”, “in a” for “in the”
Test [10] relates to Ipomea hederaceae (IPOHE). The description is as above. The note with it: dose 1,000 g/ha, evaluated after 13 days, 100=total damage, 0=no damage; for pest or weed control at 1000 g/ha: Ipomoea hederacea, 312 h. The protocol: as §1, with “for 8 days” for “for one day”, “grown on” for “grown”, “in a” for “in the”
For test [11], the system named is Setaria faberi (SETFA). The test is described as above. The note with it: dose 1,000 g/ha, evaluated after 13 days, 100=total damage, 0=no damage; for pest or weed control at 1000 g/ha: Setaria faberi, 312 h. The protocol: as §1, with “for 8 days” for “for one day”, “grown on” for “grown”, “in a” for “in the”
Test [12] deals with Solanum nigrum (SOLNI). The description is as above. To be noted: dose 1,000 g/ha, evaluated after 13 days, 100=total damage, 0=no damage; for pest or weed control at 1000 g/ha: Solanum nigrum, 312 h. As to the method: as §1, with “for 8 days” for “for one day”, “grown on” for “grown”, “in a” for “in the”

With `C/C=C/c1c(N)nc(C2CC2)nc1C(=O)OC` [2-62 (E)], in test [1], the “Percentage damage ALOMY, pre-emergence” value came out at 10%. Also, the “Percentage damage AMARE, pre-emergence” value in test [2] was determined as 40%. Also, the “Percentage damage ECHCG, pre-emergence” value in test [3] came to 10%. Moreover, the “Percentage damage IPOHE, pre-emergence” value in test [4] is 30%. Further, the “Percentage damage SETFA, pre-emergence” value in [5] worked out at 0%. Besides, the “Percentage damage SOLNI, pre-emergence” value in [6] is recorded as 70%. The “Percentage damage ALOMY, post-emergence” value in [7] came out at 10%. For the same molecule, the “Percentage damage AMARE, post-emergence” value in [8] amounted to 40%. Also, the “Percentage damage ECHCG, post-emergence” value in test [9] is listed as 10%. The “Percentage damage IPOHE, post-emergence” value in [10] is recorded as 50%. Moreover, the “Percentage damage SETFA, post-emergence” value in [11] was found to be 20%. The “Percentage damage SOLNI, post-emergence” value in [12] was 70%.

`C/C=C\c1c(N)nc(C2CC2)nc1C(=O)OC` [2-62 (Z)]: the “Percentage damage ALOMY, pre-emergence” value in [1] is recorded as 20%. Besides, the “Percentage damage AMARE, pre-emergence” value in test [2] came out at 90%. Besides, the “Percentage damage ECHCG, pre-emergence” value in [3] came to 10%. The “Percentage damage IPOHE, pre-emergence” value in test [4] was determined as 100%. In [5], the “Percentage damage SETFA, pre-emergence” value is 20%. Further, the “Percentage damage SOLNI, pre-emergence” value in test [6] was found to be 100%. Moreover, the “Percentage damage ALOMY, post-emergence” value in test [7] is given as 10%. Also, in [8], the “Percentage damage AMARE, post-emergence” value was found to be 70%. The “Percentage damage ECHCG, post-emergence” value in test [9] turned out to be 10%. For the same molecule, in [10], the “Percentage damage IPOHE, post-emergence” value was determined as 100%. The “Percentage damage SETFA, post-emergence” value in test [11] is given as 30%. For the same molecule, in test [12], the “Percentage damage SOLNI, post-emergence” value stood at 70%.

For the molecule `C/C=C/c1c(N)nc(-c2ccc(Cl)c(OC)c2F)nc1C(=O)OC` [27-62 (E)], the “Percentage damage ALOMY, pre-emergence” value in test [1] amounted to 90%. Moreover, the “Percentage damage AMARE, pre-emergence” value in test [2] amounted to 50%. Further, in test [3], the “Percentage damage ECHCG, pre-emergence” value was 90%. In [4], the “Percentage damage IPOHE, pre-emergence” value stood at 90%. In test [5], the “Percentage damage SETFA, pre-emergence” value is reported as 80%. For the same molecule, the “Percentage damage SOLNI, pre-emergence” value in test [6] is 80%. In test [7], the “Percentage damage ALOMY, post-emergence” value is 90%. The “Percentage damage AMARE, post-emergence” value in test [8] is given as 100%. In addition, the “Percentage damage ECHCG, post-emergence” value in test [9] is on record as 100%. Besides, the “Percentage damage IPOHE, post-emergence” value in test [10] was determined as 90%. The “Percentage damage SETFA, post-emergence” value in [11] worked out at 100%. Also, the “Percentage damage SOLNI, post-emergence” value in test [12] was found to be 100%.

`C/C=C\c1c(N)nc(-c2ccc(Cl)c(OC)c2F)nc1C(=O)OC` [27-62 (Z)]: the “Percentage damage ALOMY, pre-emergence” value in [1] was 80%. Also, in [2], the “Percentage damage AMARE, pre-emergence” value was 100%. In addition, in test [3], the “Percentage damage ECHCG, pre-emergence” value is reported as 90%. The “Percentage damage IPOHE, pre-emergence” value in test [4] turned out to be 100%. Further, the “Percentage damage SETFA, pre-emergence” value in [5] was found to be 80%. Moreover, the “Percentage damage SOLNI, pre-emergence” value in [6] came out at 100%. Moreover, the “Percentage damage ALOMY, post-emergence” value in [7] was found to be 70%. The “Percentage damage AMARE, post-emergence” value in test [8] came out at 100%. Moreover, the “Percentage damage ECHCG, post-emergence” value in [9] is listed as 80%. Moreover, the “Percentage damage IPOHE, post-emergence” value in test [10] came out at 100%. In test [11], the “Percentage damage SETFA, post-emergence” value was found to be 90%. Moreover, in test [12], the “Percentage damage SOLNI, post-emergence” value is on record as 80%.

Take `C/C=C/c1c(N)nc(-c2ccc(Cl)c(N(C)C)c2F)nc1C(=O)OC` [33-62 (E)]: the “Percentage damage ALOMY, pre-emergence” value in test [1] amounted to 70%. The “Percentage damage AMARE, pre-emergence” value in [2] amounted to 100%. Besides, the “Percentage damage ECHCG, pre-emergence” value in [3] worked out at 90%. Besides, the “Percentage damage IPOHE, pre-emergence” value in test [4] was determined as 0%. Moreover, the “Percentage damage SETFA, pre-emergence” value in test [5] is 80%. The “Percentage damage SOLNI, pre-emergence” value in [6] was 80%.

`C/C=C\c1c(N)nc(-c2ccc(Cl)c(N(C)C)c2F)nc1C(=O)OC` [33-62 (Z)]: in [1], the “Percentage damage ALOMY, pre-emergence” value is on record as 30%. For the same molecule, in test [2], the “Percentage damage AMARE, pre-emergence” value is 70%. Further, the “Percentage damage ECHCG, pre-emergence” value in test [3] was 30%. In [4], the “Percentage damage IPOHE, pre-emergence” value is 20%. For the same molecule, the “Percentage damage SETFA, pre-emergence” value in test [5] is reported as 30%. In addition, the “Percentage damage SOLNI, pre-emergence” value in test [6] is reported as 60%. Besides, the “Percentage damage ALOMY, post-emergence” value in test [7] was 80% and 60%. Also, the “Percentage damage AMARE, post-emergence” value in test [8] amounted to 100%. Also, in [9], the “Percentage damage ECHCG, post-emergence” value is 80% and 70%. Also, the “Percentage damage IPOHE, post-emergence” value in test [10] was 40% and 30%. Further, the “Percentage damage SETFA, post-emergence” value in test [11] is 80% and 70%. For the same molecule, the “Percentage damage SOLNI, post-emergence” value in test [12] is given as 80%.

`C=Cc1c(N)nc(C2CC2)nc1C(=O)OC` [Compound 2-61, 4-Amino-2-cyclopropyl-5-ethenyl-6-methoxycarbonyl-pyrimidine]: the pest or weed control at 1000 g/ha in [1] turned out to be 40%; in test [2], 100%; in [3], 80%; in test [4], 100%; in test [5] it was 20%; in [6], 100%. For the same molecule, the pest or weed control at 1000 g/ha in test [7] was 40%; in [8], 100%; in test [9], 60%; in [10], 100%; in test [11], 80%; in test [12], 100%.

In the case of `C=C(C)c1c(N)nc(C2CC2)nc1C(=O)OC` [Compound 2-64, 4-Amino-2-cyclopropyl-6-methoxycarbonyl-5-(prop-1-en-2-yl)-pyrimidine], the pest or weed control at 1000 g/ha in test [1] was determined as 20%; in test [2], 100%; in test [3], 0%; in test [4] it was 100%; in [5] it was 20%; in test [6] it was 80%. The pest or weed control at 1000 g/ha in test [7] was determined as 10%; in test [8], 60%; in [9], 40%; in test [10], 70%; in [11], 30%; in test [12] it was 80%.

In the case of `COC(=O)c1nc(C2CC2)nc(N)c1/C=C/C1CC1` [Compound 2-66, 4-Amino-2-cyclopropyl-5-(2-cyclopropyl-ethenyl)-6-methoxycarbonyl-pyrimidine], the pest or weed control at 1000 g/ha in test [1], in test [3], in test [4], in test [5], in [6] and in test [7] was 0% throughout. Besides, the pest or weed control at 1000 g/ha in [8] came to 50%; in [9], 0%; in test [10], 40%; in [11], 10%; in test [12], 60%.

With `COC(=O)c1nc(-c2ccc(Cl)c(OC)c2F)nc(N)c1C1CC1` [Compound 27-58, 4-Amino-2-(4-chloro-2-fluoro-3-methoxyphenyl)-5-cyclopropyl-6-methoxycarbonyl-pyrimidine], the pest or weed control at 1000 g/ha was 0% in test [1]; 0% in test [3]; 10% in test [4]; 0% in test [5]; 0% in [6]; 10% in [7]. Moreover, the pest or weed control at 1000 g/ha was found to be 90% in test [8]; 20% in [9]; 60% in test [10]; 40% in [11]; 80% in test [12].
